# According to US20080081826A1, “SYSTEM FOR EFFECTING WEIGHT LOSS” (priority 2006, published 2008):
# Key:
# [1] = test system: gastric and pancreatic lipase; conditions: literature; cited from earlier work
# [2] = Clinical weight loss studies (historical) in overweight or obese patients, 12 or 24 weeks; assay type: in vivo, human patients; conditions: no meal replacement
# Method: To conduct the studies, patients who were diagnosed as overweight or obese were chosen for clinical trials to assess weight loss as a function of prescribed meal replacements or a weight loss agent (sibutramine). Co-administration of both a weight loss agent and meal replacement was also tested.
# All patients received lifestyle modification training of either a moderate (data Groups 1-9, 11, and 12) or intensive (data Group 10) character which included a patient's participation in record keeping, professional consultation, and exercise in addition to the dietary protocol. Patients placed on a “Moderate” lifestyle management program were given a diet sheet with instructions for a defined intake of daily calories ranging from 800-1600 kcal, or a 600 kcal deficit diet, with or without exercise and routine visits with the Primary Care Provider to reinforce diet and behavior modification, but relying primarily on patient self-monitoring. Patients placed on an “Intensive” lifestyle management program were given a diet sheet with a defined intake of daily calories ranging from 800-1600 kcal, or a 600 kcal deficit diet, with meals recorded in a food diary, and were provided with ongoing diet counseling and caloric adjustment according to weight loss “Intensive” patients were also given defined minimal weekly requirements for exercise and instructed to record their activities in an exercise diary that was then collected and reviewed by the Primary Care Provider. The Intensive program also included routine visits throughout the course of the study with a Dietitian and the Primary Care Provider in order to reinforce diet and behavior modification.
# Patients in some groups (see Table 2, data Groups 2, 11, and 12) utilized meal replacement formulations. These individuals were given a diet sheet with a defined intake of daily calories ranging from 800-1600 kcal, or a 600 kcal deficit diet, with a meal replacement formulation taken once or twice daily instead of a food meal, and routine visits with a Primary Care Provider to reinforce diet and behavior modification, but relying primarily on patient self-monitoring.
# The remainder of the patients (see Table 2, data Groups 3-11) also received daily doses of sibutramine at 10 mg/day (data Groups 3-7 and 11) or 15 mg/day (data Groups 8, 9, and 12). Individuals in data Groups 11 and 12 were given a diet sheet with a defined intake of daily calories ranging from 800-1600 kcal, or a 600 kcal deficit diet, with a meal replacement formulation (SlimFast®) taken once or twice daily instead of a food meal where applicable (see Table 2), and routine visits with a Primary Care Provider to reinforce diet and behavior modification, but relying primarily on patient self-monitoring. Patients in data Group 10 were placed on a 10 mg/day sibutramine and “Intensive” life style management regimen with no meal replacement.
# In each of the studies, patients were monitored for weight loss over a 12- or 24-week period. The data groups ranged in size from 17 to 592 patients, and were placed on either a conventional diet with moderate lifestyle management program (data Group 1), or a diet including a meal replacement component including substitution of either one or two meals per day with a meal replacement formulation, as part of a moderate lifestyle management (data Group 2), or a conventional diet plus one daily dose of sibutramine (10 mg) with a moderate or intensive lifestyle management (data Groups 3-7 and 10), a conventional diet plus one daily dose of sibutramine (15 mg) with moderate lifestyle management (data Groups 8 and 9), and finally, a diet with one or two meal replacements (SlimFast®) plus one daily dose of sibutramine (10 mg) and moderate lifestyle management (data Group 11) or a diet with one or two meal replacements (SlimFast®) plus one daily dose of sibutramine (10 mg for 12 weeks followed by 15 mg for 12 weeks) (data Group 12).
# All subjects received moderate or intensive lifestyle management training. […]
# [3] = data Groups 8 and 9: 15 mg sibutramine + moderate lifestyle management, 24 weeks
structure (smiles),measurement,setting,value
"CCCCCCCCCCC[C@H](C[C@H]1OC(=O)[C@H]1CCCCCC)OC(=O)[C@@H](CC(C)C)NC=O [orlistat, (2S,3S,5S)-5-[(S)-2-formamido-4-methylvaleryloxy]-2-hexyl-3-hydroxyhexadecanoic acid lactone]",fraction of the fat contained in a meal whose absorption is blocked,[1],about one third
"CC(C)CC(N(C)C)C1(c2ccc(Cl)cc2)CCC1 (stereo not drawn) [sibutramine, N,N-dimethyl-1-[1-(4-chlorophenyl)cyclobutyl]-3-methylbutylamine]",Mean Weight Change (kg) (LOCF*),"[2]; data Group 3: sibutramine 10 mg/day, moderate lifestyle management, 12 weeks",-3.9 kg
same,"weight loss (lower end of range, sibutramine only)","[2]; data Group 3 as worded in text: 10 mg sibutramine/day + moderate lifestyle management, latest observation to week 12",3.7 kg
same,Mean Weight Change (kg) (LOCF*),"[2]; data Group 4: sibutramine 10 mg/day, moderate lifestyle management, 12 weeks",-6.2 kg
same,mean weight loss,"[2]; data Group 5: 10 mg/day sibutramine + moderate lifestyle management, latest observation to week 12",3.7 kg
same,Mean Weight Change (kg) (LOCF*),"[2]; data Group 5: sibutramine 10 mg/day, moderate lifestyle management, 12 weeks",-3.7 kg
same,Mean Weight Change (kg) (LOCF*),"[2]; data Group 6: sibutramine 10 mg/day, moderate lifestyle management, 12 weeks",-5 kg
same,Mean Weight Change (kg) (LOCF*),"[2]; data Group 7: sibutramine 10 mg/day, moderate lifestyle management, 12 weeks",-4.2 kg
same,Mean Weight Change (kg) (LOCF*),"[2]; data Group 8: sibutramine 15 mg/day, moderate lifestyle management, 24 weeks",-6.4 kg
same,Mean Weight Change (kg) (LOCF*),"[2]; data Group 9: sibutramine 15 mg/day, moderate lifestyle management, 24 weeks",-5.6 kg
same,"weight loss (upper end of range, sibutramine only)","[2]; data Group 10: 10 mg sibutramine/day + intensive lifestyle management, latest observation to week 12",8.4 kg
same,Mean Weight Change (kg) (LOCF*),"[2]; data Group 10: sibutramine 10 mg/day, intensive lifestyle management, 12 weeks",-8.4 kg
same,overall average weight loss of all groups,"[2]; data Groups 3-7: 10 mg/day sibutramine, moderate lifestyle management, 12 weeks",4.6 kg
same,average weight loss,[2]; [3],6.0 kg
same,improvement of average weight loss by the higher 15 mg dose,[2]; [3],approximately 25%
